Patent US7932246B2, “Histone deacetylase inhibitors” (Chroma Therapeutics Ltd., priority 2005, dated 2011)

Columns and labels:
[1] = biological target: histone deacetylase activity (HeLa nuclear extract); assay: HDAC fluorescent activity assay (Biomol, Fluor de Lys substrate); assay type: biochemical; settings: IC50 range
How it was run: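 HeLa nuclear extract served as the deacetylase source for the acetyl-lysine Fluor de Lys substrate, with or without inhibitor. Developer converts deacetylated substrate to a fluorophore.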

HeLa cells = assay: HeLa cell inhibition assay (SRB cell viability); assay type: cell-based; settings: Homo sapiens, HeLa, 72 h, IC50 range
How it was run: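 Log-phase cells seeded at 1000 cells/well, grown 24 h, then exposed to compound (final 20 μM top concentration) for 72 h. Viability by sulphorhodamine B staining, % inhibition relative to DMSO control. IC50 from 8-point sigmoidal variable-slope fit.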

U937 = U937 cell inhibition assay (WST-1 cell viability); assay type: cell-based; settings: Homo sapiens, U-937; U937 cells, 72-96 h, WST-1 assay, IC50 range
How it was run: (§1)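 Cells seeded at 1000-2000/well, grown 24 h, then treated for 72-96 h with 8 concentrations (top 10 μM, 3-fold, 6 replicates). Viability by WST-1; inhibition relative to DMSO, IC50 by sigmoidal variable-slope fit.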

HUT = HUT cell inhibition assay (WST-1 cell viability); assay type: cell-based; settings: HUT cells, 72-96 h, WST-1 assay, IC50 range
How it was run: as §1

Compound	IC50 [1] [nM]	IC50 (HeLa cells) [µM]	IC50 (U937) [nM]	IC50 (HUT) [nM]
O=C(NO)c1cnc(N2CC3C(C2)C3N2CCc3ccccc3C2)nc1 (centres unmarked) [Example 66, N-Hydroxy 2-[6-(3,4-dihydroisoquinolin-2(1H)-yl)-3-azabicyclo[3.1.0]hex-3-yl]pyrimidine-5-carboxamide]	< 100	0.331 to 3.3	331 to 3300	331 to 3300
O=C(NO)c1cnc(N2CC3C(C2)C3Nc2ccc3ccccc3n2)nc1 (centres unmarked) [Example 67, N-Hydroxy 2-[6-(quinolin-2-ylamino)-3-azabicyclo[3.1.0]hex-3-yl]pyrimidine-5-carboxamide]	< 100	0.331 to 3.3	331 to 3300	< 330
O=C(NO)c1cnc(N2CC3C(C2)C3Nc2nccc3ccccc23)nc1 (centres unmarked) [Example 68, N-Hydroxy 2-[6-(isoquinolin-1-ylamino)-3-azabicyclo[3.1.0]hex-3-yl]pyrimidine-5-carboxamide]	< 100	< 0.33	< 330	< 330
O=C(NO)c1cnc(NC2C3CN(S(=O)(=O)c4ccc5ccccc5c4)CC32)nc1 (centres unmarked) [Example 69, N-Hydroxy 2-{[3-(2-naphthylsulfonyl)-3-azabicyclo[3.1.0]hex-6-yl]amino}pyrimidine-5-carboxamide]	< 100	> 3.3	> 3300	331 to 3300
O=C(NO)c1cnc(N2CC(NS(=O)(=O)c3ccc4ccccc4c3)C2)nc1 [Example 70, N-Hydroxy 2-{3-[(2-naphthylsulfonyl)amino]azetidin-1-yl}pyrimidine-5-carboxamide]	< 100	> 3.3	> 3300	331 to 3300
O=C(NO)c1cnc(N2CC3C(CNCc4ccc5ccccc5c4)C3C2)nc1 (centres unmarked) [Example 71, N-Hydroxy 2-{6-[(naphthalen-2-ylmethylamino)methyl]-3-azabicyclo[3.1.0]hex-3-yl}pyrimidine-5-carboxamide]	< 100	0.331 to 3.3	331 to 3300	< 330
O=C(NO)c1cnc(N2CC3C(CNCc4ccccc4)C3C2)nc1 (centres unmarked) [Example 72, N-Hydroxy 2-{6-[(benzylamino)methyl]-3-azabicyclo[3.1.0]hex-3-yl}pyrimidine-5-carboxamide]	< 100	0.331 to 3.3	331 to 3300	< 330
O=C(NO)c1cnc(N2CC3C(CNCc4ccc(Cl)cc4)C3C2)nc1 (centres unmarked) [Example 73, N-Hydroxy 2-(6-{[(4-chlorobenzyl)amino]methyl}-3-azabicyclo[3.1.0]hex-3-yl)pyrimidine-5-carboxamide]	< 100	0.331 to 3.3	331 to 3300	< 330
O=C(NO)c1cnc(N2CC3C(CNCc4ccc5ccccc5n4)C3C2)nc1 (centres unmarked) [Example 74, N-Hydroxy 2-(6-{[(quinolin-2-ylmethyl)amino]methyl}-3-azabicyclo[3.1.0]hex-3-yl)pyrimidine-5-carboxamide]	< 100	0.331 to 3.3	331 to 3300	< 330
O=C(NO)c1cnc(N2CC3C(CNCc4ccc5cc(F)ccc5n4)C3C2)nc1 (centres unmarked) [Example 75, N-Hydroxy 2-(6-{[(6-fluoroquinolin-2-ylmethyl)amino]methyl}-3-aza-bicyclo[3.1.0]hex-3-yl)pyrimidine-5-carboxamide]	101 to 1000	0.331 to 3.3	331 to 3300	331 to 3300
O=C(NO)c1cnc(N2CC3CN(S(=O)(=O)c4ccc5ccccc5c4)CC3C2)nc1 (centres unmarked) [Example 76, N-Hydroxy 2-[5-(naphthalene-2-sulfonyl)hexahydro-pyrrolo[3,4-c]pyrrol-2(1H)-yl]pyrimidine-5-carboxamide]	< 100	0.331 to 3.3	331 to 3300	< 330

Second part, led by results:

IC50 [1] [nM]	IC50 (HeLa cells) [µM]	IC50 (U937) [nM]	Compound	IC50 (HUT) [nM]
< 100	< 0.33	331 to 3300	O=C(NO)c1cnc(N2CC3CN(C(=O)c4ccc5ccccc5c4)CC3C2)nc1 (centres unmarked) [Example 77, N-Hydroxy 2-[5-(naphthalene-2-carbonyl)hexahydropyrrolo[3,4-c]pyrrol-2(1H)-yl]pyrimidine-5-carboxamide]	< 330
< 100	> 3.3	331 to 3300	O=C(NO)c1cnc(N2CC3CN(C(=O)CCCOc4ccccc4)CC3C2)nc1 (centres unmarked) [Example 78, N-Hydroxy 2-[5-(4-phenoxybutyryl)hexahydropyrrolo[3,4-c]pyrrol-2(1H)-yl]pyrimidine-5-carboxamide]	331 to 3300
< 100	< 0.33	< 330	O=C(NO)c1cnc(N2CC3CN(Cc4ccc5ccccc5c4)CC3C2)nc1 (centres unmarked) [Example 79, N-Hydroxy 2-(5-naphthalen-2-ylmethylhexahydropyrrolo[3,4-c]pyrrol-2(1H)-yl)pyrimidine-5-carboxamide]	< 330
< 100	< 0.33	331 to 3300	COc1ccc2c(c1)CCC2N1CC2CN(c3ncc(C(=O)NO)cn3)CC2C1 (centres unmarked) [Example 80, N-Hydroxy 2-[5-(5-methoxyindan-1-yl)hexahydropyrrolo[3,4-c]pyrrol-2(1H)-yl]pyrimidine-5-carboxamide]	< 330
< 100	> 3.3	331 to 3300	O=C(NO)c1cnc(N2CC3CN(S(=O)(=O)c4cc(C(F)(F)F)cc(C(F)(F)F)c4)CC3C2)nc1 (centres unmarked) [Example 81, N-hydroxy 2-[5-(3,5-bistrifluoromethylbenzenesulfonyl)hexahydropyrrolo[3,4-c]pyrrol-2(1H)-yl]-pyrimidine-5-carboxamide]	331 to 3300
< 100	0.331 to 3.3	331 to 3300	O=C(NO)c1cnc(N2CC3CN(S(=O)(=O)c4ccc(OC(F)(F)F)cc4)CC3C2)nc1 (centres unmarked) [Example 82, N-Hydroxy 2-[5-{[4-(trifluoromethoxy)phenyl]sulfonyl}hexahydropyrrolo[3,4-c]pyrrol-2(1H)-yl]pyrimidine-5-carboxamide]	331 to 3300
< 100	0.331 to 3.3	< 330	O=C(NO)c1cnc(N2CC3CN(Cc4cc(F)cc(F)c4)CC3C2)nc1 (centres unmarked) [Example 83, N-Hydroxy 2-[5-(3,5-difluorobenzyl)hexahydropyrrolo[3,4-c]pyrrol-2(1H)-yl]pyrimidine-5-carboxamide]	< 330
< 100	0.331 to 3.3	331 to 3300	COc1ccc(CN2CC3CN(c4ncc(C(=O)NO)cn4)CC3C2)cc1 (centres unmarked) [Example 84, N-Hydroxy 2-[5-(4-methoxybenzyl)hexahydropyrrolo[3,4-c]pyrrol-2(1H)-yl]pyrimidine-5-carboxamide]	< 330
< 100	0.331 to 3.3	< 330	O=C(NO)c1cnc(N2CC3CN(Cc4ccc(Cl)cc4)CC3C2)nc1 (centres unmarked) [Example 85, N-Hydroxy 2-[5-(4-chlorobenzyl)hexahydropyrrolo[3,4-c]pyrrol-2(1H)-yl]pyrimidine-5-carboxamide]	< 330
101 to 1000	> 3.3	331 to 3300	O=C(NO)c1cnc(N2CCC3(CC2)CCN(S(=O)(=O)c2ccc4ccccc4c2)CC3)nc1 [Example 86, N-Hydroxy 2-[9-(naphthalene-2-sulfonyl)-3,9-diaza-spiro[5.5]undec-3-yl]pyrimidine-5-carboxamide]	331 to 3300
< 100	0.331 to 3.3	331 to 3300	O=C(NO)c1ccc(N2CC3CN(Cc4ccc5ccccc5c4)CC3C2)nc1 (centres unmarked) [Example 87]	331 to 3300
101 to 1000	0.331 to 3.3	331 to 3300	O=C(NO)c1ccc(N2CC3C(C2)C3NCc2ccc3ccccc3c2)cc1 (centres unmarked) [Example 88, N-Hydroxy 4-{6-[(naphthalen-2-ylmethyl)-amino]-3-azabicyclo[3.1.0]hex-3-yl}-benzamide]	331 to 3300
